Results: PMC8301926 (Biomolecules, 2021)

Legend:
Assay type in all cases: cell-based
[1] = target: T1, human M4 muscarinic acetylcholine receptor (hM4R) (Homo sapiens, UniProt P08173); test: M4 (h) functional GPCR assay, antagonist effect, cAMP HTRF; settings: CHO
T1 construct: host or cells: CHO cells
T1 sequence (P08173 1-479): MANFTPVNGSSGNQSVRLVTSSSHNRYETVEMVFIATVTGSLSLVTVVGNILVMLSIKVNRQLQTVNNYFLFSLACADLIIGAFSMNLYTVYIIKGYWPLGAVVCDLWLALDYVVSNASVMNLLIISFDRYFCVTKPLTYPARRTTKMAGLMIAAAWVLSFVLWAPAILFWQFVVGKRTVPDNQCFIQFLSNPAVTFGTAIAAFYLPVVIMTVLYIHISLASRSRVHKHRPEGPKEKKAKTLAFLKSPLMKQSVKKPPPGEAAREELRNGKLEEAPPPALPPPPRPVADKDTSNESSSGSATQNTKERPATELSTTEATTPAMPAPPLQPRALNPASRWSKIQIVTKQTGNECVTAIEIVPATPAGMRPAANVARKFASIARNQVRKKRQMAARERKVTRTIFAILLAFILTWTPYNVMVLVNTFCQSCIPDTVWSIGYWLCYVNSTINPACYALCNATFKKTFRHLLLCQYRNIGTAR
Procedure: The cellular and nuclear receptor functional assays were carried out at Eurofins Cerep (Le Bois I’ Eveque, France) following the in-house protocols (catalog items G029-1262, G029-1474, G030-1658, G030-1659, G031-1243, G031-1244, G032-1670, G032-1671, G033-4217, and G033-4212). The experimental methods for the assays were as described in the previous reports and the general methodology is summarized in the Supplementary Information Table S1. Recombinant human Chinese hamster ovary (CHO) cells and rat basophilic leukemic (RBL) cells were transfected with the GPCR genes of interest (hM1R, hM2R, hM3R, hM4R, and hM5R). The functional assay provided the readouts based on the measurements of calcium ion mobilization (for the Gαq/11-coupled receptors) and cAMP level (for the Gαi/o-coupled receptors).
Stable CHO cells expressing the transfected cDNA of human M2 receptors were suspended in a medium containing HBSS buffer complemented with 20-mM HEPES buffer (pH 7.4) and 500-µM IBMX, whereas the stable human M4 receptor cloned CHO cells were distributed in HBSS buffer with 20-mM HEPES/NaOH (pH 7.4), 70-mM NaCl, 5.33-mM KCl, 1.25-mM CaCl2, 0.5-mM MgCl2, 0.41-mM MgSO4, 0.441-mM KH2PO4, 0.3-mM Na2HPO4, 0.1% glucose, and 500-µM IBMX. […] The cAMP level was calculated as the ratio of the signal measured at 665 nm to that measured at 620 nm. […]
Assay Source Stimulus Incubation Measured Detection References […]

[2] = target: T2, human M5 muscarinic acetylcholine receptor (hM5R) (Homo sapiens, UniProt P08912); test: M5 (h) functional GPCR assay, antagonist effect, intracellular Ca2+; settings: RBL
T2 construct: host or cells: RBL (rat basophilic leukemic) cells
T2 sequence (P08912 1-532): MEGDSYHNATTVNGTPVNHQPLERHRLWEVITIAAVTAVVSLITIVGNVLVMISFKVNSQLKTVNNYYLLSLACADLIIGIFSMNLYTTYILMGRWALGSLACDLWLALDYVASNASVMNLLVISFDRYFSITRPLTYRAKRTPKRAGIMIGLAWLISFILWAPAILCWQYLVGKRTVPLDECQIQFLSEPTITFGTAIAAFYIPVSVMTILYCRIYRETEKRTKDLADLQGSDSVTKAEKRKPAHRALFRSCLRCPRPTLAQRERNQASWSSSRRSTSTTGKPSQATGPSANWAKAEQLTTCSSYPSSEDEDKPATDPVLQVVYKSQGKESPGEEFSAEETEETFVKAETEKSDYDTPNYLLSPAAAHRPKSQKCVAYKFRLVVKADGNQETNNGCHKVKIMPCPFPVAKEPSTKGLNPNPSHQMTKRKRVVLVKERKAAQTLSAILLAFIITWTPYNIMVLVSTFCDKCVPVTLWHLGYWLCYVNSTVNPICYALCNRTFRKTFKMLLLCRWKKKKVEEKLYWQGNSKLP

[3] = target: T3, human M2 muscarinic acetylcholine receptor (hM2R) (Homo sapiens, UniProt P08172); test: M2 (h) functional GPCR assay, antagonist effect, cAMP HTRF; settings: CHO
T3 construct: host or cells: CHO cells
T3 sequence (P08172 1-466): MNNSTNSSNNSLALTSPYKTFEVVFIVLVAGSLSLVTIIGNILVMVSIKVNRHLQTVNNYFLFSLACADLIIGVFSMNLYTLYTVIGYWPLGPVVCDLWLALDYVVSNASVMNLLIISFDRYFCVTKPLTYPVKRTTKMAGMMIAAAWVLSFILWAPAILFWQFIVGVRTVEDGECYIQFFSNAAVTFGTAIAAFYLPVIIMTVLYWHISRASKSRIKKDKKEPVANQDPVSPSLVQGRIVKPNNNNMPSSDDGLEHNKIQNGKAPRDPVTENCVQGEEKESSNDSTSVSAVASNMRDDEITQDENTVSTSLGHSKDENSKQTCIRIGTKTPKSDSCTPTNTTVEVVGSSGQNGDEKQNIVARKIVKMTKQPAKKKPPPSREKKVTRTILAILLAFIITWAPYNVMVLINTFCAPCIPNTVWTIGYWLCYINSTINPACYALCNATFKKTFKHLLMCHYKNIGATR

Cc1coc2c1C(=O)C(=O)c1c-2ccc2c(C)cccc12 [Tanshinone I]
inhibition at 100 µM [1]: 56.1 ± 2.4%
inhibition at 100 µM [2]: -0.5 ± 0.42%
inhibition at 100 µM [3]: 35.8 ± 4.74%
